The results in this text go back to PMC7194404, “Arg-type dihydroflavonol 4-reductase genes from the fern Dryopteris erythrosora play important roles in the biosynthesis of anthocyanins” (PLoS ONE, 2020).

Assay in all cases: HPLC of anthocyanidin formed from product, crude E. coli extract
Holding throughout (type): biochemical
Common to all, as to details: 0.8 mM substrate, 1.6 mM NADPH, 50 mM Tris-HCl pH 7.0, 30 °C, 30 min

The target in one assay is T1, DeDFR1 (Dryopteris erythrosora, UniProt A0A5P8I1X0).
T1 construct: gene DFR1
T1 sequence (A0A5P8I1X0 1-328): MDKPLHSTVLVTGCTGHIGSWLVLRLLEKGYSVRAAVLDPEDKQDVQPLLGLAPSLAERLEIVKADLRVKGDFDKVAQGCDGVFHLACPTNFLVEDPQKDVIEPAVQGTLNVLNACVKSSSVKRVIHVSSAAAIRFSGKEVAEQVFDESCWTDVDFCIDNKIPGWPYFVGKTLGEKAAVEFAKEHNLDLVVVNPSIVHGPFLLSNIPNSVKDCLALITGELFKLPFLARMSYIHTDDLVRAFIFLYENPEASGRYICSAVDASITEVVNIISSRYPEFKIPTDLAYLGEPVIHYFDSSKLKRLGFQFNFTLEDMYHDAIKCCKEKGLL

In the next assay the target is T2, DeDFR2 (Dryopteris erythrosora, UniProt A0A5P8I1W3).
T2 construct: gene DFR2
T2 sequence (A0A5P8I1W3 1-341): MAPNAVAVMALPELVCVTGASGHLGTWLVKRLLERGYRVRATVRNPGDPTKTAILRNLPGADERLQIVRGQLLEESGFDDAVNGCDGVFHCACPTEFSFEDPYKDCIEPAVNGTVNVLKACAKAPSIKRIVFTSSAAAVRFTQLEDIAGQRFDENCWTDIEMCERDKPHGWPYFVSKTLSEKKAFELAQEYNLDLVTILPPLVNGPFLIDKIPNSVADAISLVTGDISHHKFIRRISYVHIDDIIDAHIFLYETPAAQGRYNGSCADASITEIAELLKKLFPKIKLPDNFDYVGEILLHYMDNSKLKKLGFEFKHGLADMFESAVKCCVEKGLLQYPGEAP

A further assay has as its target T3, AtDFR (Arabidopsis thaliana, UniProt P51102).
T3 construct: gene DFRA; pET28a-AtDFR, E. coli BL21(DE3), crude soluble extract
T3 sequence (P51102 1-382): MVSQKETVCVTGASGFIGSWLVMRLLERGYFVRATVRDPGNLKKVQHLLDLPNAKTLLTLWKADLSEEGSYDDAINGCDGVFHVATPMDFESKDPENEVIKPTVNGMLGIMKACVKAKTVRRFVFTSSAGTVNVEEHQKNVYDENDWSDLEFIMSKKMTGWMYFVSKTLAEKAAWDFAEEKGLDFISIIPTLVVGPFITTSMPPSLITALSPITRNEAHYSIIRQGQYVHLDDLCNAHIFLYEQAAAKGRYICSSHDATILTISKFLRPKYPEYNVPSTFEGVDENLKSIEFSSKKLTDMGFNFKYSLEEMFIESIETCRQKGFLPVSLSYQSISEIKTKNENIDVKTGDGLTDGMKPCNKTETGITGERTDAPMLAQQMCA

Consider `O=C1c2c(O)cc(O)cc2O[C@H](c2ccc(O)cc2)[C@H]1O` [DHK, dihydrokaempferol], for which the “HPLC of anthocyanidin formed from product, crude E. coli extract” value (“HPLC of anthocyanidin formed” for short) was “DeDFR1 and DeDFR2 had the ability to catalyze the DHK and DHQ reaction” at DeDFR1; “DeDFR1 and DeDFR2 had the ability to catalyze the DHK and DHQ reaction” at DeDFR2.

In the case of `O=C1c2c(O)cc(O)cc2O[C@H](c2cc(O)c(O)c(O)c2)[C@H]1O` [DHM, dihydromyricetin], on AtDFR, the “HPLC of anthocyanidin formed” value was “all three dihydroflavonols could be converted to pink anthocyanins”.

On to `O=C1c2c(O)cc(O)cc2O[C@H](c2ccc(O)c(O)c2)[C@H]1O` [DHQ, dihydroquercetin], for which the “HPLC of anthocyanidin formed” value at DeDFR1 was “DeDFR1 and DeDFR2 had the ability to catalyze the DHK and DHQ reaction”; at DeDFR2, “DeDFR1 and DeDFR2 had the ability to catalyze the DHK and DHQ reaction”; on AtDFR it was “all three dihydroflavonols could be converted to pink anthocyanins”.
